Results from US20050245399A1, “Pyrazole derivatives as herbicidal compositions containing them” (ISHIHARA SANGYO KAISHA, LTD., priority 2004, published 2005).

What follows are compounds tested on corn (Zea mays L.), ZEAMX (assay: Test Example 2 post-emergence (foliage treatment) herbicidal activity, ZEAMX). Settings: 63 g a.i./ha.
Assay type: in vivo
How it was run: (§1)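 A small sprayer delivered the diluted WP or EC formulation (500 L/ha water, 0.1% v/v spreader) over emerged seedlings in upland soil pots. Damage relative to untreated plants was graded visually from 0 to 100% three weeks or so later (days 20-23).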

| Structure (SMILES) | growth controlling degree, ZEAMX [%] |
| --- | --- |
| COc1c(Cl)cc(F)c(-c2nn(C)c(OC(F)F)c2Cl)c1NC(=O)C(C)(C)Oc1ccccc1 [Compound 1-38] | 10 |

What follows are compounds tested on rice (Oryza sativa L.), ORYSA (assay: Test Example 2 post-emergence (foliage treatment) herbicidal activity, ORYSA). Settings: 63 g a.i./ha.
Assay type: in vivo
How it was run: (§2)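 Foliar spray of formulated compound (500 L/ha dilution water, 0.1% v/v spreader) onto young potted plants at defined leaf stages. Scored 0-100% by visual inspection 20-23 d post-spray.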

| Structure (SMILES) | growth controlling degree, ORYSA [%] |
| --- | --- |
| COc1c(Cl)cc(F)c(-c2nn(C)c(OC(F)F)c2Cl)c1NC(=O)C(C)(C)Oc1ccccc1 [Compound 1-38] | 40 |

The compounds below were run on wheat (Triticum aestivum L.), TRZAX (assay: Test Example 2 post-emergence (foliage treatment) herbicidal activity, TRZAX). Settings: 63 g a.i./ha.
Assay type: in vivo
How it was run: as §1

| Structure (SMILES) | growth controlling degree, TRZAX [%] |
| --- | --- |
| COc1c(Cl)cc(F)c(-c2nn(C)c(OC(F)F)c2Cl)c1NC(=O)C(C)(C)Oc1ccccc1 [Compound 1-38] | 10 |

What follows are compounds tested on green foxtail (Setaria viridis L.), SETVI (assay: Test Example 2 post-emergence (foliage treatment) herbicidal activity, SETVI). Settings: 63 g a.i./ha.
Assay type: in vivo
How it was run: as §1

| Structure (SMILES) | growth controlling degree, SETVI [%] |
| --- | --- |
| COc1c(Cl)cc(F)c(-c2nn(C)c(OC(F)F)c2Cl)c1NC(=O)C(C)(C)Oc1ccccc1 [Compound 1-38] | 50 |

What follows are compounds tested on green foxtail (Setaria viridis L.): SETVI (assay: Test Example 1 pre-emergence herbicidal activity, SETVI). Settings: Rate 63 g a.i./ha, visually observed 20th to 23rd day after application.
Assay type: in vivo
How it was run: (§3)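 Visual scoring 20–23 days after treatment gives percent growth control, where 0 equals untreated and 100 means complete kill. Treatment: pre-emergence spray of formulated compound in 500 L/ha water, one day after sowing in upland soil.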

| Structure (SMILES) | Pre-emergence Herbicidal Activity SETVI (growth controlling degree) [%] |
| --- | --- |
| COc1c(Cl)cc(F)c(-c2nn(C)c(OC(F)F)c2Cl)c1NC(=O)C(C)(C)Oc1ccccc1 [Compound 1-38] | 20 |

What follows are compounds tested on wheat (Triticum aestivum L.): TRZAX (assay: Test Example 1 pre-emergence herbicidal activity, TRZAX). Settings: Rate 63 g a.i./ha, visually observed 20th to 23rd day after application.
Assay type: in vivo
How it was run: as §3

| Structure (SMILES) | Pre-emergence Herbicidal Activity TRZAX (growth controlling degree) [%] |
| --- | --- |
| COc1c(Cl)cc(F)c(-c2nn(C)c(OC(F)F)c2Cl)c1NC(=O)C(C)(C)Oc1ccccc1 [Compound 1-38] | 0 |

The compounds below were run on soybean (Glycine max Merr.), GLXMA (assay: Test Example 2 post-emergence (foliage treatment) herbicidal activity, GLXMA). Settings: 63 g a.i./ha.
Assay type: in vivo
How it was run: as §1

| Structure (SMILES) | growth controlling degree, GLXMA [%] |
| --- | --- |
| COc1c(Cl)cc(F)c(-c2nn(C)c(OC(F)F)c2Cl)c1NC(=O)C(C)(C)Oc1ccccc1 [Compound 1-38] | 30 |

The compounds below were run on rice (Oryza sativa L.): ORYSA (assay: Test Example 1 pre-emergence herbicidal activity, ORYSA). Settings: Rate 63 g a.i./ha, visually observed 20th to 23rd day after application.
Assay type: in vivo
How it was run: as §3

| Structure (SMILES) | Pre-emergence Herbicidal Activity ORYSA (growth controlling degree) [%] |
| --- | --- |
| COc1c(Cl)cc(F)c(-c2nn(C)c(OC(F)F)c2Cl)c1NC(=O)C(C)(C)Oc1ccccc1 [Compound 1-38] | 0 |

What follows are compounds tested on prickly sida (Sida spinosa L.), SIDSP (assay: Test Example 2 post-emergence (foliage treatment) herbicidal activity, SIDSP). Settings: 63 g a.i./ha.
Assay type: in vivo
How it was run: as §1

| Structure (SMILES) | growth controlling degree, SIDSP [%] |
| --- | --- |
| COc1c(Cl)cc(F)c(-c2nn(C)c(OC(F)F)c2Cl)c1NC(=O)C(C)(C)Oc1ccccc1 [Compound 1-38] | 100 |

The compounds below were run on velvetleaf (Abutilon theophrasti): ABUTH (assay: Test Example 1 pre-emergence herbicidal activity, ABUTH). Settings: Rate 63 g a.i./ha, visually observed 20th to 23rd day after application.
Assay type: in vivo
How it was run: as §3

| Structure (SMILES) | Pre-emergence Herbicidal Activity ABUTH (growth controlling degree) [%] |
| --- | --- |
| COc1c(Cl)cc(F)c(-c2nn(C)c(OC(F)F)c2Cl)c1NC(=O)C(C)(C)Oc1ccccc1 [Compound 1-38] | 0 |

What follows are compounds tested on redroot pigweed (Amaranthus retroflexus L.): AMARE (assay: Test Example 1 pre-emergence herbicidal activity, AMARE). Settings: Rate 63 g a.i./ha, visually observed 20th to 23rd day after application.
Assay type: in vivo
How it was run: as §3

| Structure (SMILES) | Pre-emergence Herbicidal Activity AMARE (growth controlling degree) [%] |
| --- | --- |
| COc1c(Cl)cc(F)c(-c2nn(C)c(OC(F)F)c2Cl)c1NC(=O)C(C)(C)Oc1ccccc1 [Compound 1-38] | 20 |

The compounds below were run on crabgrass (Digitaria sanguinalis L.), DIGSA (assay: Test Example 2 post-emergence (foliage treatment) herbicidal activity, DIGSA). Settings: 63 g a.i./ha.
Assay type: in vivo
How it was run: as §2

| Structure (SMILES) | growth controlling degree, DIGSP [%] |
| --- | --- |
| COc1c(Cl)cc(F)c(-c2nn(C)c(OC(F)F)c2Cl)c1NC(=O)C(C)(C)Oc1ccccc1 [Compound 1-38] | 20 |

Each compound was assayed on barnyardgrass (Echinochloa crus-galli L.): ECHCG (assay: Test Example 1 pre-emergence herbicidal activity, ECHCG). Settings: Rate 63 g a.i./ha, visually observed 20th to 23rd day after application.
Assay type: in vivo
How it was run: as §3

| Structure (SMILES) | Pre-emergence Herbicidal Activity ECHCG (growth controlling degree) [%] |
| --- | --- |
| COc1c(Cl)cc(F)c(-c2nn(C)c(OC(F)F)c2Cl)c1NC(=O)C(C)(C)Oc1ccccc1 [Compound 1-38] | 0 |

What follows are compounds tested on corn (Zea mays L.): ZEAMX (assay: Test Example 1 pre-emergence herbicidal activity, ZEAMX). Settings: Rate 63 g a.i./ha, visually observed 20th to 23rd day after application.
Assay type: in vivo
How it was run: as §3

| Structure (SMILES) | Pre-emergence Herbicidal Activity ZEAMX (growth controlling degree) [%] |
| --- | --- |
| COc1c(Cl)cc(F)c(-c2nn(C)c(OC(F)F)c2Cl)c1NC(=O)C(C)(C)Oc1ccccc1 [Compound 1-38] | 0 |

The compounds below were run on velvetleaf (Abutilon theophrasti), ABUTH (assay: Test Example 2 post-emergence (foliage treatment) herbicidal activity, ABUTH). Settings: 63 g a.i./ha.
Assay type: in vivo
How it was run: as §1

| Structure (SMILES) | growth controlling degree, ABUTH [%] |
| --- | --- |
| COc1c(Cl)cc(F)c(-c2nn(C)c(OC(F)F)c2Cl)c1NC(=O)C(C)(C)Oc1ccccc1 [Compound 1-38] | 100 |

These compounds were tested on crabgrass (Digitaria sanguinalis L.): DIGSA (assay: Test Example 1 pre-emergence herbicidal activity, DIGSA). Settings: Rate 63 g a.i./ha, visually observed 20th to 23rd day after application.
Assay type: in vivo
How it was run: as §3

| Structure (SMILES) | Pre-emergence Herbicidal Activity DIGSP (growth controlling degree) [%] |
| --- | --- |
| COc1c(Cl)cc(F)c(-c2nn(C)c(OC(F)F)c2Cl)c1NC(=O)C(C)(C)Oc1ccccc1 [Compound 1-38] | 10 |

The compounds below were run on soybean (Glycine max Merr.): GLXMA (assay: Test Example 1 pre-emergence herbicidal activity, GLXMA). Settings: Rate 63 g a.i./ha, visually observed 20th to 23rd day after application.
Assay type: in vivo
How it was run: as §3

| Structure (SMILES) | Pre-emergence Herbicidal Activity GLXMA (growth controlling degree) [%] |
| --- | --- |
| COc1c(Cl)cc(F)c(-c2nn(C)c(OC(F)F)c2Cl)c1NC(=O)C(C)(C)Oc1ccccc1 [Compound 1-38] | 0 |

These compounds were tested on redroot pigweed (Amaranthus retroflexus L.), AMARE (assay: Test Example 2 post-emergence (foliage treatment) herbicidal activity, AMARE). Settings: 63 g a.i./ha.
Assay type: in vivo
How it was run: as §2

| Structure (SMILES) | growth controlling degree, AMARE [%] |
| --- | --- |
| COc1c(Cl)cc(F)c(-c2nn(C)c(OC(F)F)c2Cl)c1NC(=O)C(C)(C)Oc1ccccc1 [Compound 1-38] | 100 |

What follows are compounds tested on barnyardgrass (Echinochloa crus-galli L.), ECHCG (assay: Test Example 2 post-emergence (foliage treatment) herbicidal activity, ECHCG). Settings: 63 g a.i./ha.
Assay type: in vivo
How it was run: as §2

| Structure (SMILES) | growth controlling degree, ECHCO [%] |
| --- | --- |
| COc1c(Cl)cc(F)c(-c2nn(C)c(OC(F)F)c2Cl)c1NC(=O)C(C)(C)Oc1ccccc1 [Compound 1-38] | 50 |

What follows are compounds tested on prickly sida (Sida spinosa L.): SEDSP (assay: Test Example 1 pre-emergence herbicidal activity, SIDSP). Settings: Rate 63 g a.i./ha, visually observed 20th to 23rd day after application.
Assay type: in vivo
How it was run: as §3

| Structure (SMILES) | Pre-emergence Herbicidal Activity SIDSP (growth controlling degree) [%] |
| --- | --- |
| COc1c(Cl)cc(F)c(-c2nn(C)c(OC(F)F)c2Cl)c1NC(=O)C(C)(C)Oc1ccccc1 [Compound 1-38] | 0 |
